Values quoted from earlier work as cited in patent US8109913B2, “Coiled wire for the controlled release of drugs to the eye” (DSM IP Assets B.V., priority 2005, dated 2012).

How the values were obtained:
[1] = in vivo, device loaded with atropine
[2] = in vitro

| SMILES | Mydriasis [1] | Activity of the drug when released from the coating [2] |
| --- | --- | --- |
| CN1[C@@H]2CC[C@H]1C[C@@H](OC(=O)C(CO)c1ccccc1)C2 (some centres unmarked) [atropine] | mydriasis can be obtained | – |
| N#Cc1c(N2C[C@@H]3CCCN[C@@H]3C2)c(F)cc2c(=O)c(C(=O)O)cn(C3CC3)c12 [pradofloxacin] | – | still active |
